For assay [1], the system named is FIV. Particulars: FIV-infected cats, Hartmann et al. 1998; cited from earlier work.
The test system of assay [2] is FeLV. Nature of the assay: Inhibition of FeLV replication in CrFK cell culture (p27 ELISA and RT-qPCR). The assay is classed as cell-based. The settings on record: CrFK cells, 100 CCID50 FeLV, six days, mean ± SD of three independent assays. On the procedure:
The compounds were dissolved in a 0.05 N sodium hydroxide solution at a concentration of 10 mg/ml. Crandell Reese Feline kidney (CrFK) cells were grown in Dulbecco minimum essential medium (DMEM, Life Technologies) containing 1% sodium bicarbonate (Life Technologies) and 5% fetal calf serum (FCS, Biochrom). In a 96-well plate 5000 CrFK cells were seeded and incubated for 24 h at 37° C. in a humid atmosphere containing 5% CO2. Subsequently cells were washed with 100 μl phosphate buffered saline (PBS) containing 50 μg/ml DEAE-dextran and inoculated with 100 CCID50 FeLV in presence of increasing doses of the compounds (0.4; 2; 10 and 50 μg/ml). After 2 h of incubation allowing the virus to enter the cells, the supernatant was removed and the cells were washed with PBS. DMEM including 5% FCS and containing increasing doses of the compounds were added to the infected cells. Infected cells without compounds were included as positive controls (virus control) and uninfected cells were included as negative controls (cell control). The cells were incubated for six days when viral supernatant was collected and analyzed by enzyme-linked immunosorbent assay (ELISA) for FeLV p27 antigen production and real time RT-qPCR for FeLV RNA production. […]

A further assay deals with FIV-Ut113. The assay can be described thus: Inhibition of FIV replication in CrFK cells co-infected with FeLV and FIV (p24 ELISA and RT-qPCR). It counts as cell-based. The settings on record: CrFK cells co-infected with FeLV and FIV-Ut113, six days; mean ± SD of three independent assays. On the procedure: (§1) The compounds were dissolved in a 0.05 N sodium hydroxide solution at a concentration of 10 mg/ml. Reference compounds PMEDAP and PMEA were dissolved in a sodium bicarbonate buffer at a concentration of 10 mg/ml.
(§2) Crandell Reese Feline kidney (CrFK) cells were grown in Dulbecco minimum essential medium (DMEM, Life Technologies) containing 1% sodium bicarbonate (Life Technologies) and 5% fetal calf serum (FCS, Biochrom). In a 96-well plate 5000 CrFK cells were seeded and incubated for 24 h at 37° C. in a humid atmosphere containing 5% CO2. Subsequently cells were washed with 100 μl phosphate buffered saline (PBS) containing 50 μg/ml DEAE-dextran and co-infected with 100 CCID50 FeLV and 100 CCID50 FIV-Ut113 in presence of increasing doses of the compounds (0.4; 2; 10 and 50 μg/ml). After 2 h of incubation allowing the virus to enter the cells, the supernatant was removed and the cells were washed with PBS. […] The cells were incubated for six days when viral supernatant was collected and analyzed by ELISA for FeLV p27 and FIV p24 antigen production and real time RT-qPCR for FeLV and FIV RNA production. […] Subsequently the amount of FIV p24 was detected by a monoclonal biotinylated antibody 5E6D11 followed by a colorimetric reaction which is based on extravidin peroxidase (Sigma) and OPD substrate (Sigma).

In the next assay the test system is FIV and FeLV. Nature of the assay: Treatment of cats naturally co-infected with FIV and FeLV. The assay is classed as in vivo. The settings on record: cat co-infected with FIV and FeLV, pre versus post treatment (FIG. 2); no other treatment. On the procedure: The compounds were dissolved in an appropriate aqueous buffered sodium hydroxide solution (at concentration ranging between 50 and 250 mg/ml and close to neutral pH conditions (pH between 6 and 9). The formulated compounds were administered via the subcutaneous route at least once weekly at total dose rates ranging between 10 and 175 mg/kg per week. Treatment duration was between 1 week and 3 months.
FIV and FeLV, as retroviruses, reverse transcribe their viral RNA genome into proviral DNA which is subsequently inserted into the genome of its host. […] Reduction of viral load is important in controlling FIV/FeLV infection in the cat. […] The graph in FIG. 2 represents the viral load pre and post treatment with the compounds in a cat co-infected with FIV and FeLV. No other treatment was given concomitantly.

The subject of assay [3] is FeLV. Nature of the assay: Inhibition of FeLV replication in CrFK cells co-infected with FeLV and FIV (p27 ELISA and RT-qPCR). Particulars: CrFK cells co-infected with FeLV and FIV-Ut113, six days; mean ± SD of three independent assays. The assay is classed as cell-based. On the procedure:
as §1, §2

Assay [4] deals with FIV. The assay can be described thus: Treatment of clinically ill cats naturally infected with FIV. The assay is classed as in vivo, cat. On the procedure: The compounds were dissolved to a concentration ranging between 50 and 250 mg/mL in an appropriate aqueous buffered sodium hydroxide solution close to neutral pH conditions (pH between 6 and 9).
The formulated compounds were administered via the subcutaneous route at least once weekly at total dose rates ranging between 10 and 175 mg/kg per week. Treatment duration was between 1 week and 3 months.
The results of the treatment of cats with specific symptoms are discussed below. • Cats with oral signs. • Oral signs can present themselves as, but are not limited to, stomatitis, gingivitis, faucitis, glossitis, periodontitis, gingivostomatitis, ulcerations of the tonsils and tongue, salivation etc. […] Spontaneous bleeding was no longer observed and the bloody red inflammation diminished to a slightly pinkish observation. No other treatment was given concomitantly. • Cats with high viral load • FIV, as a retrovirus, reverse transcribes its viral RNA genome into proviral DNA which is subsequently inserted into the genome of its host. […] Reduction of viral load is important in controlling FIV infection in the cat. […] The graphs in FIGS. 1A, B and C represent the viral load pre and post treatment with the compounds in three different cats. No other treatment was given concomitantly. • Lethargic and emaciated cat, with severe weight loss • The FIV-positive cat was presented to the veterinarian with the following clinical signs: lethargy, emaciation, difficulty to walk, unable to jump up/off a chair, no desire to go outdoors, prolonged sleeping patterns. Prognosis was to euthanize the cat. • Treatment with the compounds was initiated and within a matter of weeks, the cat returned to normal, gained weight (0.6 kg), walked and played around, stayed outdoors for several consecutive days. […] No other treatment was given concomitantly. • Cat with lymphadenopathy (swollen/enlarged lymph nodes) • A male FIV-positive cat with swollen Lnn. poplitei (score 4; severity is scored on a scale from 0 to 10 with 0 representing a normal clinical picture and 10 being the most severe manifestation) was treated with the compounds. Within two weeks the swelling went down to a score of 2. At the end of the 6-week treatment period with the compounds a score of 1 was noted; 0 representing a normal clinical picture. […] Before treatment the Lnn. poplitei were swollen (score 2). Two weeks into treatment the lymphnodes returned to normal (score 0) which was maintained throughout the 6-week treatment period with the compounds. • Similar observations were made for two FIV-positive cats. When treatment was initiated the Lnn. mandibulares were swollen (score 2 and 3, respectively). The returned to normal (score 0) by the end of the 6-week treatment with the compounds. • Cat with inflammation of the eye • A female FIV-positive cat suffered from chronic inflammation of the eye before treatment with the compounds was initiated despite concurrent antibacterial treatment. […] No other treatment was given concomitantly. One week following treatment the cat was able to sit up straight and eat on its own. Treatment was continued for another four weeks after which the cat was able to walk, climb up and down stairs, and eat on its own. […] The Karnofsky's score has proven its validity in cats to assess and compare the efficacy of antiviral compounds (Hartmann et al., J Acquir Immune Defic Syndr Hum Retrovirol 1998). Table 4 summarizes the Karnofsky's score of two FIV-positive cats before, during and post treatment with the compounds. No other treatment was given concomitantly.

In assay [5] the test system is FeLV. The assay can be described thus: Treatment of cats naturally infected with FeLV. The assay is classed as in vivo, cat.
[6] abbreviates: FIV-positive cat A, 50% before treatment.
Where [7] appears, read: FIV-positive cat B, 30.5% before treatment.

Converted amounts (≈) assume the structure as drawn.

For the compound `Nc1ncnc2c1ncn2CCOCP(=O)(O)O` [PMEA, 9-(2-phosphonylmethoxyethyl)adenine, reference compound], in the assay with FIV [1], the “Effect on FIV load” value was “did not decrease the FIV load” and the “Improvement in Karnofsky's score” value was 10%.
Turning to `Nc1ncnc2c1ncn2C[C@@H](CF)OCP(=O)(O)O` [FPMPA, (S)-9-(3-fluoro-2-phosphonylmethoxypropyl)adenine], in the assay with FIV [1], the “Effect on FIV load” value is on record as “reduced the FIV load” and the “Improvement in Karnofsky's score” value is reported as 3.8%.
Regarding `CC(Cn1cnc2c(N)nc(N)nc21)OCP(=O)(O)O` (centres unmarked) [R-PMPDAP, 9-(2-phosphonylmethoxypropyl)-2,6-diaminopurine], in the assay with FeLV [2] (FeLV RNA in supernatant), the “EC50 of FeLV replication, RT-qPCR” value amounted to 0.039 ± 0.024 µg/mL. For the same compound, the “EC50 of FeLV replication, p27 ELISA” value in the assay with FeLV [2] (p27 antigen in supernatant) is 0.030 ± 0.006 µg/mL. Moreover, in the assay with FIV-Ut113, the “EC50 FIV ELISA (p24)” value turned out to be 0.332 ± 0.035 µg/mL (≈ 1.1 µM) and the “EC50 FIV RT-qPCR” value came out at 0.258 ± 0.024 µg/mL (≈ 0.854 µM). The “Viral load (FIV/FeLV virions per mL plasma)” value in the assay with FIV and FeLV was “significantly reduce the viral load”. Besides, in the assay on FeLV [3], the “EC50 FeLV ELISA (p27)” value turned out to be 0.062 ± 0.010 µg/mL (≈ 0.205 µM) and the “EC50 FeLV RT-qPCR” value is 0.095 ± 0.050 µg/mL (≈ 0.314 µM). Besides, in the assay with FIV [4] (setting [6]), the “Karnofsky's score, 1 month post cessation of treatment” value was found to be 90%; the “Karnofsky's score, during treatment” value was 70%; the “Karnofsky's score, end of treatment” value was 90%. In the assay on FIV [4] (setting [7]), the “Karnofsky's score, 1 month post cessation of treatment” value amounted to 35%; the “Karnofsky's score, during treatment” value is 50%; the “Karnofsky's score, end of treatment” value turned out to be 50%. In addition, the Stomatitis upon treatment result in the assay with FIV [4] (FIV-positive cat with severe caudal stomatitis and buccostomatitis, subcutaneous, 10-175 mg/kg per week, no other treatment) was “the stomatitis decreased significantly”. Also, in the assay with FIV [4] (FIV-positive cat with severe gingivitis with spontaneous bleeding, subcutaneous, no other treatment), the Gingivitis upon treatment result is “the gingivitis decreased significantly”. For the same compound, the “Viral load (FIV virions per mL plasma)” value in the assay with FIV [4] (FIV-positive cats, pre versus post treatment, three cats (FIG. 1A, B, C)) is on record as “significantly reduce the viral load”. The “Chronic inflammation of the eye following treatment” value in the assay with FIV [4] (female FIV-positive cat, concurrent antibacterial treatment) is “on its way to full recovery”. For the same compound, the “Swelling score of Lnn. poplitei” value with FIV [4] (female FIV-positive cat, score 2 before treatment, scale 0 to 10, two weeks into treatment, maintained throughout 6 weeks) is 0. This compound also came in with a Weight gained in the assay with FIV [4] (lethargic, emaciated FIV-positive cat with severe weight loss, within a matter of weeks) of 0.6 kg. Further, in the assay on FIV [4] (lethargic, emaciated FIV-positive cat, prognosis was to euthanize, within a matter of weeks), the General condition result is given as “general condition returned to normal”. Also, the “Swelling score of Lnn. poplitei” value in the assay on FIV [4] (male FIV-positive cat, score 4 before treatment, scale 0 to 10, end of the 6-week treatment period) is reported as 1. The “Swelling score of Lnn. poplitei” value in the assay on FIV [4] (male FIV-positive cat, score 4 before treatment, scale 0 to 10, within two weeks) was found to be 2. Further, the “Neurological symptoms (acute paresis of left front and hind legs)” value with FIV [4] (male FIV-positive cat, shortly after five weeks of treatment, no other treatment) is “A full recovery was observed”. Besides, the “Feces (chronic daily diarrhea)” value in the assay on FIV [4] (male FIV-positive cat, within two weeks) is recorded as “returned to normal within two weeks”. Besides, in the assay on FIV [4] (two FIV-positive cats, score 2 and 3 at start, scale 0 to 10, end of the 6-week treatment), the “Swelling score of Lnn. mandibulares” value was determined as 0. Also, the “FeLV viral load after treatment” value with FeLV [5] (female FeLV-positive viremic cat, RT-qPCR, decreased from 15500) is on record as 3200 FeLV virions per mL plasma. Moreover, in the assay with FeLV [5] (male FeLV-positive cat with clinical signs, 58.5% before treatment), the “Karnofsky's score at the end of the 3-week treatment period” value is recorded as 80%. Besides, the “FeLV associated clinical signs following treatment” value in the assay with FeLV [5] (male FeLV-positive cat with oral inflammation, lymphadenopathy, diarrhea) is given as “the clinical signs ameliorated”.
